# From paper PMC6269587 (Iranian Journal of Pharmaceutical Research : IJPR, 2018)
# Columns and labels:
# [1] = DPPH radical scavenging activity (antioxidant activity); settings: DPPH method, 30 min, 517 nm, triplicate
# Procedure: The DPPH method is based on the free radical scavenging activity ([17]). briefly, 2 mL of DPPH solution in methanol (4×10^-5 g/mL) was prepared and added to 1 mL of different concentrations of sample solution in methanol (0.1, 0.5 and 1.0 mg/mL). The mixture was kept in the dark for 30 min at room temperature. The antioxidant activity was measured by Shimadzu, UV/VIS model 160A spectrophotometer at 517 nm.
# All the measurements were done in triplicate. The IC50 values were calculated as means ± SD and butylated hydroxytoluene (BHT) was used as positive control.
# [2] = target: T1, Acetylcholinesterase (AChE) (Homo sapiens, UniProt P22303); assay: biochemical; settings: for AChE Inhibitory IC50 ± SD: Ellman's method, 412 nm, 25 °C, pH 8.0
# T1 construct: purchased Sigma (Germany)
# T1 sequence (P22303 32-614, species assumed): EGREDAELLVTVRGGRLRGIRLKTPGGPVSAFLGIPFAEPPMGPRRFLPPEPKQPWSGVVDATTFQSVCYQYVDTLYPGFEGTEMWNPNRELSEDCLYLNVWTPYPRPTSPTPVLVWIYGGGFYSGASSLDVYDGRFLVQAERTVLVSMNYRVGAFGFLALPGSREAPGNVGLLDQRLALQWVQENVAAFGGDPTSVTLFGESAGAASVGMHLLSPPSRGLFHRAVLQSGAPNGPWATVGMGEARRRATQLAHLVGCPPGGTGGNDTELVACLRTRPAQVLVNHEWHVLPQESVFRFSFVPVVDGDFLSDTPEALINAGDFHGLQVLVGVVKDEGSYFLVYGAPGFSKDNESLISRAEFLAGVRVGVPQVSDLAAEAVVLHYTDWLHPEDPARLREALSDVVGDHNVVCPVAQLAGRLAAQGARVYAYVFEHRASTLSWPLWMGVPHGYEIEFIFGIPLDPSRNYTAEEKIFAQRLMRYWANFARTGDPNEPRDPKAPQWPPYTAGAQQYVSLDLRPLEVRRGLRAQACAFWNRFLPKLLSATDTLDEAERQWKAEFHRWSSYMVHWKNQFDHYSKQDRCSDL
# Procedure: AChE inhibitory effect of petroleum ether, chloroform, ethyl acetate, and methanol fractions were carried out by the Ellman′s method ([16]).
# [3] = test system: triple transgenic mice of Alzheimer's disease model; settings: cited from earlier work
# brain cells = settings: mice; cited from earlier work
SMILES,Antioxidant Activity IC50 ± SD [1] [µg/mL],IC50 [2] [µM],AChE Inhibitory IC50 ± SD [2],"effect on performance, emotional and cognitive behavior [3]",neuroprotective effect (brain cells)
"O=c1c(O[C@@H]2O[C@H](CO)[C@@H](O)[C@H](O)[C@H]2O)c(-c2ccc(O)cc2)oc2cc(O)cc(O)c12 [Astragalin, astragalin]",26.92 ± 3.5,162,,,
O=C(O)c1ccccc1O [Salicylic acid],114.57 ± 1.0,,-,,
O=C(O)C=Cc1ccc(O)cc1 [p-Coumaric acid],110.33 ± 1.2,,-,,
"O=c1c(O)c(-c2ccc(O)c(O)c2)oc2cc(O)cc(O)c12 [Quercetin, quercetin]",10.24 ± 1.3,220,,"protective effects on performance, emotional and cognitive behavior have been confirmed",strong protective effects of this compound on the brain cells
"Cc1cc(C(C)(C)C)c(O)c(C(C)(C)C)c1 [BHT, butylated hydroxytoluene, reference compound]",19.50 ± 2.8,,,,
O=C(O)/C=C/c1ccc(O)c(O)c1 [Caffeic acid],11.41 ± 6.0,66.9,,,
